Source: article PMC4991273 (2016)

How the values were obtained:
[1] = system: ds17 (DNA, duplex) CCAGTTCGTAGTAACCC/GGGTTACTACGAACTGG; assay: fluorescence enhancement and lifetime (TCSPC); settings: K+ 100 mM; 10 mM lithium cacodylate, pH 7.3; 2 μM compound
[2] = system: ss17 (DNA, single strand) CCAGTTCGTAGTAACCC; assay: fluorescence enhancement and lifetime (TCSPC); settings: K+ 100 mM; 10 mM lithium cacodylate, pH 7.3; 2 μM compound
[3] = system: TBA (DNA, G4) GGTTGGTGTGGTTGG; assay: fluorescence enhancement and lifetime (TCSPC); settings: K+ 100 mM; 10 mM lithium cacodylate, pH 7.3; 2 μM compound
[4] = system: myc2345 (DNA, G4) TGAGGGTGGGGAGGGTGGGGAA; assay: fluorescence enhancement and lifetime (TCSPC); settings: K+ 100 mM; 10 mM lithium cacodylate, pH 7.3; 2 μM compound
[5] = system: PDGF-A (DNA, G4) GGAGGCGGGGGGGGGGGGGCGGGGGCGGGGGCGGGGGAGGGGCGCGGC; assay: fluorescence enhancement and lifetime (TCSPC); settings: K+ 100 mM (DNA annealed in 25 mM KCl); 10 mM lithium cacodylate, pH 7.3; 2 μM compound
[6] = system: ds17 (DNA, duplex) CCAGTTCGTAGTAACCC/GGGTTACTACGAACTGG; assay: fluorescence emission titration; settings: K+ 100 mM; 10 mM lithium cacodylate, pH 7.3; 2 μM compound; per motif (2 compounds per 5 base pairs); per site
[7] = system: ss17 (DNA, single strand) CCAGTTCGTAGTAACCC; assay: fluorescence emission titration; settings: K+ 100 mM; 10 mM lithium cacodylate, pH 7.3; 2 μM compound; per motif of 5 bases; per site
[8] = system: TBA (DNA, G4) GGTTGGTGTGGTTGG; assay: fluorescence emission titration; settings: K+ 100 mM; 10 mM lithium cacodylate, pH 7.3; 2 μM compound; per site
[9] = system: myc2345 (DNA, G4) TGAGGGTGGGGAGGGTGGGGAA; assay: fluorescence emission titration; settings: K+ 100 mM; 10 mM lithium cacodylate, pH 7.3; 2 μM compound; per motif (2 compounds per G-quadruplex); per site
[10] = system: PDGF-A (DNA, G4) GGAGGCGGGGGGGGGGGGGCGGGGGCGGGGGCGGGGGAGGGGCGCGGC; assay: fluorescence emission titration; settings: K+ 100 mM (DNA annealed in 25 mM KCl); 10 mM lithium cacodylate, pH 7.3; 2 μM compound

**Q.** Which results are given for c1cc2oc3cccc4c3c3c5c(cccc5[n+]4CCN4CCOCC4)n(CCN4CCOCC4)c(c1)c2-3?
**A.** binding [1]: yes; binding [2]: yes; binding [3]: yes; binding [4]: yes; binding [5]: yes

**Q.** With CCCn1c2cccc3oc4cccc5c4c(c4c1cccc4[n+]5CCC)-c32 as the compound, how does the K a [6] read?
**A.** 2.1 ± 0.3 × 10^6 M^-1

**Q.** And the K a [7]?
**A.** 1.0 ± 0.2 × 10^6 M^-1

**Q.** What about the K a [8] of the same compound?
**A.** 1.2 ± 0.4 × 10^6 M^-1

**Q.** What about the K a [9] of the same compound?
**A.** 8.4 ± 2.9 × 10^5 M^-1

**Q.** And the K a [10]?
**A.** 1.6 ± 1.5 × 10^6 M^-1
